# In ChEMBL document CHEMBL4513161, “CO-ADD screening of MMV (CH) - Pandemic Response Box” (2021):
# Structures can show the parent of a compound that is named as a salt.
# Legend:
# [1] = tested on: HEK293; assay: cells; type: functional, Homo sapiens, ATCC CRL1573; details: Homo sapiens, ATCC CRL1573, HEK293; ASSAY_TEST Inhibition of Cell Viability; detection method Resazurin; Fluorescence (ex560/em590); MEDIA DMEM with 10% FBS; plate type 384well; TC; CORNING #3712; time 18 hr; read-out: CC50
# [2] = tested on: Pseudomonas aeruginosa; assay: Antibacterial activity against Pseudomonas aeruginosa PAO397 [PAO1 d(mexAB-oprM) d(mexCD-oprJ) d(mexEF-oprN) d(mexJKL) d(mexXY) d(opmH)] (CO-ADD:GN_211); MIC in CAMBH media using NBS plates, by OD(600); type: functional; details: ASSAY_TEST Inhibition of Bacterial Growth, detection method Absorption (OD600), MEDIA CAMHB, plate type 384well, CORNING #3640, time 18 hr
# [3] = tested on: Escherichia coli; assay: microbe, parasite or virus in culture; details: ATCC 25922, 18 h, ASSAY_TEST Inhibition of Bacterial Growth, detection method Absorption (OD600), MEDIA CAMHB, plate type 384well, NBS, CORNING #3640
# Description: Antibacterial activity against Escherichia coli ATCC 25922 (CO-ADD:GN_001); MIC in CAMBH media using NBS plates, by OD(600)
# [4] = tested on: Pseudomonas aeruginosa; assay: microbe, parasite or virus in culture; details: ATCC 27853, 18 h, ASSAY_TEST Inhibition of Bacterial Growth, detection method Absorption (OD600), MEDIA CAMHB, plate type 384well, NBS, CORNING #3640
# Description: Antibacterial activity against Pseudomonas aeruginosa ATCC 27853 (CO-ADD:GN_042); MIC in CAMBH media using NBS plates, by OD(600)
# [5] = tested on: Klebsiella pneumoniae; assay: microbe, parasite or virus in culture; details: ATCC 700603, 18 h, ASSAY_TEST Inhibition of Bacterial Growth, detection method Absorption (OD600), MEDIA CAMHB, plate type 384well, NBS, CORNING #3640
# Description: Antibacterial activity against Klebsiella pneumoniae MDR ATCC 70063 (CO-ADD:GN_003); MIC in CAMBH media using NBS plates, by OD(600)
# [6] = tested on: Cryptococcus neoformans
# Description: Antifungal activity against Cryptococcus neoformans H99 ATCC 208821 (CO-ADD:FG_002); MIC in YNB media using NBS plates, by Resazurin OD(600-570)
# [7] = tested on: Candida albicans; assay: microbe, parasite or virus in culture; details: ATCC 90028, ASSAY_TEST Inhibition of Fungal Growth, detection method Absorption (OD530), plate type 384well, NBS, CORNING #3640
# Description: Antifungal activity against Candida albicans ATCC 90028 (CO-ADD:FG_001); MIC in YNB media using NBS plates, by OD630
# [8] = tested on: Acinetobacter baumannii; assay: microbe, parasite or virus in culture; details: ATCC 19606, 18 h, ASSAY_TEST Inhibition of Bacterial Growth, detection method Absorption (OD600), MEDIA CAMHB, plate type 384well, NBS, CORNING #3640
# Description: Antibacterial activity against Acinetobacter baumannii ATCC 19606 (CO-ADD:GN_034); MIC in CAMBH media using NBS plates, by OD600
# [9] = tested on: Staphylococcus aureus; assay: microbe, parasite or virus in culture; details: ATCC 43300, 18 h, ASSAY_TEST Inhibition of Bacterial Growth, detection method Absorption (OD600), MEDIA CAMHB, plate type 384well, NBS, CORNING #3640
# Description: Antibacterial activity against Staphylococcus aureus MRSA ATCC 43300 (CO-ADD:GP_020); MIC in CAMBH media, using NBS plates, by OD(600)
SMILES,CC50 [1] [µM],MIC [2] [µM],MIC [3] [µM],MIC [4] [µM],MIC [5] [µM],MIC [6] [µM],MIC [7] [µM],MIC [8] [µM],MIC [9] [µM]
C[C@@H]1O[C@@H]1P(=O)(O)O,> 20,> 20,> 20,> 20,> 20,> 20,> 20,> 20,> 20
Clc1cc(Cl)c2c(c1)CCc1ccccc1C2n1ccnc1 (stereo unspecified),> 20,20,> 20,> 20,> 20,20,5,> 20,20
Cn1cncc1[C@@](N)(c1ccc(Cl)cc1)c1ccc2c(c1)c(-c1cccc(Cl)c1)cc(=O)n2C [TIPIFARNIB],8.09,> 20,> 20,> 20,> 20,> 20,> 20,> 20,20
CCc1nc2ccccn2c1C(=O)NCc1ccccc1,> 20,> 20,> 20,> 20,> 20,> 20,> 20,> 20,> 20
COc1ccc(SCC(=O)N2c3ccccc3Sc3ccccc32)cc1,> 20,> 20,> 20,> 20,> 20,> 20,> 20,> 20,> 20
CCOC(=O)N[C@@H]1CC[C@@H]2[C@@H](C1)C[C@H]1C(=O)O[C@H](C)[C@H]1[C@H]2/C=C/c1ccc(-c2cccc(F)c2)cn1 [VORAPAXAR],> 20,> 20,> 20,> 20,> 20,> 20,> 20,> 20,> 20
O=[N+]([O-])c1ccc2c(CCc3c[nH]c4ccccc34)c[nH]c2c1,> 20,> 20,> 20,> 20,> 20,> 20,> 20,> 20,> 20
CCc1oc2ccccc2c1C(=O)c1ccc(O)cc1 [BENZARONE],> 20,> 20,> 20,> 20,> 20,> 20,> 20,> 20,> 20
Cc1cc(C2CCCCC2)n(O)c(=O)c1 [CICLOPIROX],3.98,> 20,> 20,> 20,> 20,5,5,> 20,> 20
CC(C)N(c1cc(-c2ccccc2)sc1C(=O)O)C(=O)[C@H]1CC[C@H](C)CC1,> 20,> 20,> 20,> 20,> 20,> 20,> 20,> 20,> 20
Cc1ccc(NC(=O)c2ccc(CN3CCN(C)CC3)cc2)cc1Nc1nccc(-c2cccnc2)n1 [IMATINIB],> 20,> 20,> 20,> 20,> 20,> 20,> 20,> 20,> 20
NC(=O)[C@@H]1CC[C@@H]2CN1C(=O)N2OS(=O)(=O)O,> 20,> 20,> 20,> 20,> 20,> 20,> 20,> 20,> 20
CN1C(=O)C(c2ccccc2)C(=O)N(c2ccccc2)c2cc(C(F)(F)F)ccc21 (stereo unspecified),> 20,> 20,> 20,> 20,> 20,> 20,> 20,> 20,> 20
CCCCC(CC)CNC(=N)NC(=N)NCCCCCCNC(=N)NC(=N)NCC(CC)CCCC (stereo unspecified) [ALEXIDINE DIHYDROCHLORIDE],2.61,5,1.25,5,5,≤ 0.156,0.625,10,≤ 0.156
CC(=O)N1c2ccccc2NC2=C(C(=O)CC(C)(C)C2)C1c1ccc(OCc2ccccc2)cc1 (stereo unspecified),> 20,> 20,> 20,> 20,> 20,> 20,> 20,> 20,> 20
COc1cc(Cc2cnc(N)nc2N)c2c(c1OC)OC(C1CC1)C=C2 (stereo unspecified),> 20,5,> 20,> 20,> 20,> 20,> 20,> 20,2.5
NNC(=O)c1ccncc1 [ISONIAZID],> 20,> 20,> 20,> 20,> 20,> 20,> 20,> 20,> 20
CN1CCN(c2ccc3[nH]c(-c4ccc5[nH]c(-c6ccc(O)cc6)nc5c4)nc3c2)CC1 [HOECHST 33258],> 20,20,> 20,> 20,> 20,2.5,5,> 20,> 20
C=CCc1cc(Cc2cnc(N)nc2N)cc(OC)c1O,> 20,10,2.5,> 20,10,> 20,> 20,> 20,2.5
N[C@@H]1CN(c2c(F)cc3c(=O)c(C(=O)O)cn([C@@H]4C[C@@H]4F)c3c2Cl)CC12CC2 [SITAFLOXACIN ANHYDROUS],> 20,≤ 0.156,≤ 0.156,2.5,5,> 20,> 20,5,0.312
COc1ccc(C2CNC(=O)C2)cc1OC1CCCC1 (stereo unspecified) [ROLIPRAM],> 20,> 20,> 20,> 20,> 20,> 20,> 20,> 20,> 20
NCCCc1ccccc1C(=O)Nc1ncc([N+](=O)O)s1,> 20,> 20,> 20,> 20,> 20,> 20,> 20,> 20,> 20
O=c1ccc2ncc(=O)n3c2n1CC3CN1CCC(NCc2cc3c(cn2)OCCC3)CC1 (stereo unspecified),> 20,≤ 0.156,2.5,20,> 20,> 20,> 20,10,0.625
CCOc1ccc(C(=O)NCCc2ccccc2)cc1,> 20,> 20,> 20,> 20,> 20,> 20,> 20,> 20,> 20
